Measurements: patent publication US20070280929A1, “ADJUVANT IN THE FORM OF A LIPID-MODIFIED NUCLEIC ACID” (priority 2006, published 2007)

Experiments:
[1] = tested on: breast cancer cell lines; details: various breast cancer cell lines; cited from earlier work
[2] = tested on: human PBMC cells; assay: TNF-α release by human PBMC cells after 16 h co-incubation, supernatants analysed by ELISA; format: cell-based; details: FIG. 6, 10 μg/ml RNA oligonucleotides
Description: In order to determine the immunogenic activity of adjuvants according to the invention, such adjuvants in the form of a lipid-modified nucleic acid containing a sequence according to SEQ ID NO: 40, 41 or 42 were co-incubated with human cells. To this end, human PBMC cells, for example, containing RNA were co-incubated for 16 hours in X-vivo15 medium (BioWhittaker), enriched with 2 mM L-glutamine (BioWhittaker), 10 U/ml penicillin (BioWhittaker) and 10 μg/ml streptomycin, with 10 μg/ml of RNA (mRNA coding for β-galactosidase or phosphorothioate RNA oligonucleotide 40 5′ […] (SEQ ID NO: 40)) and optionally with 10 μg/ml protamine. The supernatants were removed and analysed by means of ELISA. […] When determining the TNFα release, a marked stimulation of the immune system can be detected, which is at least equal to that of β-galactosidase or RNA (see FIG. 5B).
In a further experiment, the release of TNF-α by human PBMC cells was determined after stimulation with RNA oligonucleotides used according to the invention and also adjuvants according to the invention.
To that end, human PBMC cells were co-incubated for 16 hours with 10 μg/ml of RNA oligonucleotides in X-vivo15 medium (BioWhittaker), enriched with 2 mM L-glutamine (BioWhittaker), 10 U/ml penicillin (BioWhittaker) and 10 μg/ml streptomycin. […] The supernatants were removed and analysed by means of ELISA. […]

Compound | apoptosis [1] | increase in immune stimulation (TNF-α release) as compared with the unmodified RNA oligonucleotide [2]
Cc1c(C)c2c(c(C)c1OC(=O)CCC(=O)O)CC[C@@](C)(CCC[C@H](C)CCC[C@H](C)CCCC(C)C)O2 [VES, vitamin E succinate] | induce apoptosis | 
RNA oligo Toc CV2: tocopherol-modified sequence according to SEQ ID NO: 42 (5′-AAUGGAUAUGGAAUAUGGAA-3′, RNA CV2) (RNA, backbone not given here; tocopherol lipid conjugated) |  | more than 10 fold
